Measurements as given in patent publication US20250127887A1 (priority 2021, published 2025).
Square brackets hold non-standard residues; d marks the D form. Ends that are not written are not given here. * marks the point of attachment. Azp = azidopentanoic acid, [N-]=[N+]=NCCCCC(=O)*; Cit = NC(=O)NCCC[C@H](N)C(=O)O

Assays:
[1] = test system: T cells; assay: In vitro T cell recognition of modified E7 and Reps1 peptide antigen fragments; assay type: cell-based; conditions: E7 (RAHYNIVTF) and Reps1 (AQLANDVVL) fragments modified at N- or C-terminus; FIGS. 28A and B
Source text: To study the impact of the solubilizing block and extensions on peptide antigen recognition by T cells in vitro, two model antigens, E7 ([…]) and Reps1 ([…]), modified at the N-terminal and/or C-terminal positions were produced by solid-phase peptide synthesis (Tables 25 and 26), and then screened in vitro for T cell recognition (FIG. 28).

[2] = assay type: physicochemical; conditions: pH 7.4
[3] = pH-responsiveness of carboxylic acid amphiphiles by turbidity (OD at 490 nm); assay type: physicochemical; conditions: 0.1 mM in 1×PBS at pH 7.4, 7.0 or 6.5
[4] = test system: OT-II cells; assay: In vitro induction of regulatory T cells by tolerance vaccine formulations in co-culture of CD11c+ APCs and OT-II cells, flow cytometry; assay type: cell-based; conditions: 500 nM peptide antigen conjugate, three days
[5] = test system: antigen specific CD4 T cells expressing FOXP3; assay: Proportion of T cells expressing Tbet or Foxp3; Treg induction by tolerance vaccines with inhibitors and immunostimulants; assay type: cell-based
[6] = Torin-1 combined with TLR-7/8a 2BXy, peptide antigen conjugate 500 nM

In the case of “341: "modification of the C-terminus of peptide antigen fragments (e.g., Compounds 341 and 362) is more well tolerated" (RAHYNIVTFSV[Cit][Azidolysine]-NH2) [Compound 341]”, the “potency for T cell recognition” value [1] is reported as “more well tolerated”.
With “343: "modification of the N-terminus of peptide antigen fragments (e.g., Compounds, 343 and 364) negatively impacts potency" (Azp-V[Cit]RAHYNIVTFS-NH2; SMILES CC[C@H](C)[C@H](NC(=O)[C@H](CC(N)=O)NC(=O)[C@H](Cc1ccc(O)cc1)NC(=O)[C@H](Cc1c[nH]cn1)NC(=O)[C@H](C)NC(=O)[C@H](CCCNC(=N)N)NC(=O)[C@H](CCCNC(N)=O)NC(=O)[C@@H](NC(=O)CCCCN=[N+]=[N-])C(C)C)C(=O)N[C@H](C(=O)N[C@H](C(=O)N[C@@H](Cc1ccccc1)C(=O)N[C@@H](CO)C(N)=O)[C@@H](C)O)C(C)C) [Compound 343]” the “potency for T cell recognition” value [1] was “negatively impacts potency”.
With “KKKKKKK-SGSGSGSGSGSGSGSGSGSGSGSG-(Lys(N3-DBCO))-Ahx-(F′)5 [Compound 91]” the “Size (diameter, nm)” value [2] was 477 nm.
In the case of “{Succinic acid}4K2K{Lys(N3-DBCO)}-Ahx-2B3W2 [Compound 274]”, the “pH-responsiveness: aggregation / particle size stability by turbidity (OD at 490 nm)” value [3] is reported as “stable particle sizes down to at least pH 7.0”.
For “364: "modification of the N-terminus of peptide antigen fragments (e.g., Compounds, 343 and 364) negatively impacts potency" (Azp-V[Cit]AQLANDVVL-NH2; SMILES CC(C)C[C@H](NC(=O)[C@@H](NC(=O)[C@@H](NC(=O)[C@H](CC(=O)O)NC(=O)[C@H](CC(N)=O)NC(=O)[C@H](C)NC(=O)[C@H](CC(C)C)NC(=O)[C@H](CCC(N)=O)NC(=O)[C@H](C)NC(=O)[C@H](CCCNC(N)=O)NC(=O)[C@@H](NC(=O)CCCCN=[N+]=[N-])C(C)C)C(C)C)C(C)C)C(N)=O) [Compound 364]”, the “potency for T cell recognition” value [1] was “negatively impacts potency”.
In the case of CCC(=O)N1CCN(c2ccc(-n3c(=O)ccc4cnc5ccc(-c6cnc7ccccc7c6)cc5c43)cc2C(F)(F)F)CC1 [Torin-1, Torin 1], the “proportion of Tregs (Treg/Tbet) relative to formulations with rapamycin” value [4] is reported as 2-4 fold, the “number and proportion of Tregs induced” value ([4]; vaccines with inhibitor vs without inhibitors, FIGS. 25 and 26) is reported as “significantly higher” and the “Magnitude of Tregs induced by tolerance vaccines” value ([5]; Torin-1 combined with TLR-7/8a 2BXy, versus other immunostimulants) is reported as “highest magnitude Treg responses”. The “Magnitude of Treg responses, fold higher than Torin-1 alone” value [5, 6] was 2 fold, the “Magnitude of Treg responses, fold higher than the vaccine without Torin-1” value [5, 6] was 8 fold and the “Proportion of antigen specific CD4 T cells expressing FOXP3” value ([5]; compared with SR1555, rapamycin and ITE, peptide antigen conjugate 500 nM) was “higher proportion of antigen specific CD4 T cells expressing FOXP3”.
